Experimental data reported in patent US20210045385A1, “PYRIDAZINONE-SUBSTITUTED KETOXIMES AS HERBICIDES” (FMC Corporation, priority 2018, published 2021).

Tests used:
Assay type in all cases: in vivo
[1] = test system: ragweed (common ragweed, Ambrosia elatior); test: Test A postemergence, visual plant response rating; settings: for Ragweed plant response rating (0 to 100 scale): 500 g ai/ha, postemergence, 0 is no effect, 100 is complete control; for Ragweed plant response rating: Postemergence, 125 g ai/ha, 0 to 100 scale (0 no effect, 100 complete control)
Outline: (§1)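 Ratings use a 0–100 visual scale (100 = complete control) against untreated controls, scored about 10 days after greenhouse treatment. Test chemicals were formulated in surfactant-containing non-phytotoxic solvent and applied either as soil spray after planting (preemergence) or onto one- to two-leaf, 2–10 cm plants (postemergence).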

[2] = test system: Italian ryegrass (Lolium multiflorum); test: Test A postemergence, visual plant response rating; settings: for Ryegrass, Italian plant response rating (0 to 100 scale): 500 g ai/ha, postemergence, 0 is no effect, 100 is complete control; for Ryegrass, Italian plant response rating: Postemergence, 125 g ai/ha, 0 to 100 scale (0 no effect, 100 complete control)
Outline: as §1

[3] = test system: pigweed (Amaranthus retroflexus); test: Test A postemergence, visual plant response rating; settings: for Pigweed plant response rating (0 to 100 scale): 500 g ai/ha, postemergence, 0 is no effect, 100 is complete control; for Pigweed plant response rating: Postemergence, 125 g ai/ha, 0 to 100 scale (0 no effect, 100 complete control)
Outline: as §1

[4] = test system: blackgrass (Alopecurus myosuroides); test: Test A postemergence, visual plant response rating; settings: for Blackgrass plant response rating (0 to 100 scale): 500 g ai/ha, postemergence, 0 is no effect, 100 is complete control; for Blackgrass plant response rating: Postemergence, 125 g ai/ha, 0 to 100 scale (0 no effect, 100 complete control)
Outline: as §1

corn (Zea mays) = test: Test A postemergence, visual plant response rating; settings: for Corn plant response rating (0 to 100 scale): 500 g ai/ha, postemergence, 0 is no effect, 100 is complete control; for Corn plant response rating: Postemergence, 125 g ai/ha, 0 to 100 scale (0 no effect, 100 complete control)
Outline: as §1

kochia (Kochia scoparia) [5] = test: Test A postemergence, visual plant response rating; settings: for Kochia plant response rating (0 to 100 scale): 500 g ai/ha, postemergence, 0 is no effect, 100 is complete control; for Kochia plant response rating: Postemergence, 125 g ai/ha, 0 to 100 scale (0 no effect, 100 complete control)
Outline: as §1

[6] = test system: galium (catchweed bedstraw, Galium aparine); test: Test A postemergence, visual plant response rating; settings: for Galium plant response rating (0 to 100 scale): 500 g ai/ha, postemergence, 0 is no effect, 100 is complete control; for Galium plant response rating: Postemergence, 125 g ai/ha, 0 to 100 scale (0 no effect, 100 complete control)
Outline: as §1

[7] = test system: barnyardgrass (Echinochloa crus-galli); test: Test A postemergence, visual plant response rating; settings: for Barnyardgrass plant response rating (0 to 100 scale): 500 g ai/ha, postemergence, 0 is no effect, 100 is complete control; for Barnyardgrass plant response rating: Postemergence, 125 g ai/ha, 0 to 100 scale (0 no effect, 100 complete control)
Outline: as §1

[8] = test system: foxtail, giant (giant foxtail, Setaria faberii); test: Test A postemergence, visual plant response rating; settings: for Foxtail, Giant plant response rating (0 to 100 scale): 500 g ai/ha, postemergence, 0 is no effect, 100 is complete control; for Foxtail, Giant plant response rating: Postemergence, 125 g ai/ha, 0 to 100 scale (0 no effect, 100 complete control)
Outline: as §1

[9] = test system: wheat (Triticum aestivum); test: Test A postemergence, visual plant response rating; settings: for Wheat plant response rating (0 to 100 scale): 500 g ai/ha, postemergence, 0 is no effect, 100 is complete control; for Wheat plant response rating: Postemergence, 125 g ai/ha, 0 to 100 scale (0 no effect, 100 complete control)
Outline: as §1

[10] = test system: ragweed (common ragweed, Ambrosia elatior); test: Test A preemergence, visual plant response rating; settings: for Ragweed plant response rating: 125 g ai/ha, preemergence, 0 to 100 scale, 0 no effect, 100 complete control; for Ragweed plant response rating (0 to 100 scale): 500 g ai/ha Preemergence, approx. 10 days
Outline: as §1

[11] = test system: Italian ryegrass (Lolium multiflorum); test: Test A preemergence, visual plant response rating; settings: for Ryegrass, Italian plant response rating: 125 g ai/ha, preemergence, 0 to 100 scale, 0 no effect, 100 complete control; for Ryegrass, Italian plant response rating (0 to 100 scale): 500 g ai/ha Preemergence, approx. 10 days
Outline: as §1

[12] = test system: pigweed (Amaranthus retroflexus); test: Test A preemergence, visual plant response rating; settings: for Pigweed plant response rating: 125 g ai/ha, preemergence, 0 to 100 scale, 0 no effect, 100 complete control; for Pigweed plant response rating (0 to 100 scale): 500 g ai/ha Preemergence, approx. 10 days
Outline: as §1

kochia (Kochia scoparia) [13] = test: Test A preemergence, visual plant response rating; settings: for Kochia plant response rating: 125 g ai/ha, preemergence, 0 to 100 scale, 0 no effect, 100 complete control; for Kochia plant response rating (0 to 100 scale): 500 g ai/ha Preemergence, approx. 10 days
Outline: as §1

[14] = test system: barnyardgrass (Echinochloa crus-galli); test: Test A preemergence, visual plant response rating; settings: for Barnyardgrass plant response rating: 125 g ai/ha, preemergence, 0 to 100 scale, 0 no effect, 100 complete control; for Barnyardgrass plant response rating (0 to 100 scale): 500 g ai/ha Preemergence, approx. 10 days
Outline: as §1

[15] = test system: foxtail, giant (giant foxtail, Setaria faberii); test: Test A preemergence, visual plant response rating; settings: for Foxtail, Giant plant response rating: 125 g ai/ha, preemergence, 0 to 100 scale, 0 no effect, 100 complete control; for Foxtail, Giant plant response rating (0 to 100 scale): 500 g ai/ha Preemergence, approx. 10 days
Outline: as §1

[16] = test system: ducksalad (Heteranhera limosa); test: Test B flooded paddy test, visual plant response rating; settings: 250 g ai/ha, Flood, applied to paddy water, 2-leaf stage, evaluated after 13 to 15 days
Outline: (§2)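 2-leaf plants; pots flooded 3 cm over soil surface; compound dosed straight into the floodwater; depth kept constant; greenhouse 13–15 d; visual rating vs. untreated controls.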

rice (Oryza sativa) = test: as above; settings: 250 g ai/ha, Flood, applied to paddy water, 2-leaf stage, evaluated after 13 to 15 days
Outline: as §2

[17] = test system: sedge, umbrella (small-flower umbrella sedge, Cyperus difformis); test: as above; settings: 250 g ai/ha, Flood, applied to paddy water, 2-leaf stage, evaluated after 13 to 15 days
Outline: as §2

[18] = test system: barnyardgrass (Echinochloa crus-galli); test: as above; settings: 250 g ai/ha, Flood, applied to paddy water, 2-leaf stage, evaluated after 13 to 15 days
Outline: as §2

| Compound | Ragweed plant response rating (0 to 100 scale) [1] | Ragweed plant response rating [1] | Ryegrass, Italian plant response rating (0 to 100 scale) [2] | Ryegrass, Italian plant response rating [2] | Pigweed plant response rating (0 to 100 scale) [3] | Pigweed plant response rating [3] | Blackgrass plant response rating (0 to 100 scale) [4] | Blackgrass plant response rating [4] | Corn plant response rating (0 to 100 scale) (corn (Zea mays)) | Corn plant response rating (corn (Zea mays)) | Kochia plant response rating (0 to 100 scale) (kochia (Kochia scoparia) [5]) | Kochia plant response rating (kochia (Kochia scoparia) [5]) | Galium plant response rating (0 to 100 scale) [6] | Galium plant response rating [6] | Barnyardgrass plant response rating (0 to 100 scale) [7] | Barnyardgrass plant response rating [7] | Foxtail, Giant plant response rating (0 to 100 scale) [8] | Foxtail, Giant plant response rating [8] | Wheat plant response rating (0 to 100 scale) [9] | Wheat plant response rating [9] | also measured |
| --- | --- | --- | --- | --- | --- | --- | --- | --- | --- | --- | --- | --- | --- | --- | --- | --- | --- | --- | --- | --- | --- |
| CON=C(c1c(O)c(C)nn(C)c1=O)c1ccc(OC)c2ccccc12 [Compound 55] | 30 | 0 | 70 | 0 | 20 | 0 | 80 | 70 | 30 | 0 | 30 | 10 | 70 | 50 | 30 | 20 | 50 | 20 | 20 | 0 | Ragweed plant response rating [10]: 10; Ragweed plant response rating (0 to 100 scale) [10]: 80; Ryegrass, Italian plant response rating [11]: 0; Ryegrass, Italian plant response rating (0 to 100 scale) [11]: 30; Pigweed plant response rating [12]: 0; Pigweed plant response rating (0 to 100 scale) [12]: 0; Kochia plant response rating (kochia (Kochia scoparia) [13]): 0; Kochia plant response rating (0 to 100 scale) (kochia (Kochia scoparia) [13]): 0; Barnyardgrass plant response rating [14]: 0; Barnyardgrass plant response rating (0 to 100 scale) [14]: 50; Foxtail, Giant plant response rating [15]: 10; Foxtail, Giant plant response rating (0 to 100 scale) [15]: 90; Plant response rating, Ducksalad (0 to 100 scale, 0 is no effect, 100 is complete control) [16]: 0; Plant response rating, Rice (0 to 100 scale, 0 is no effect, 100 is complete control) (rice (Oryza sativa)): 0; Plant response rating, Sedge, Umbrella (0 to 100 scale, 0 is no effect, 100 is complete control) [17]: 0; Plant response rating, Barnyardgrass (0 to 100 scale, 0 is no effect, 100 is complete control) [18]: 0 |
| CON=C(c1cccc(C(F)(F)F)c1)c1c(O)c(C)nn(C)c1=O [Compound 56] | 50 | 10 | 50 | 20 | 70 | 50 | 40 | 30 | 0 | 0 | 50 | 20 | 80 | 70 | 10 | 0 | 0 | 0 | 0 | 0 | Ragweed plant response rating [10]: 70; Ragweed plant response rating (0 to 100 scale) [10]: 50; Ryegrass, Italian plant response rating [11]: 0; Ryegrass, Italian plant response rating (0 to 100 scale) [11]: 40; Pigweed plant response rating [12]: 30; Pigweed plant response rating (0 to 100 scale) [12]: 90; Kochia plant response rating (kochia (Kochia scoparia) [13]): 0; Kochia plant response rating (0 to 100 scale) (kochia (Kochia scoparia) [13]): 60; Barnyardgrass plant response rating [14]: 0; Barnyardgrass plant response rating (0 to 100 scale) [14]: 50; Foxtail, Giant plant response rating [15]: 0; Foxtail, Giant plant response rating (0 to 100 scale) [15]: 40; Plant response rating, Ducksalad (0 to 100 scale, 0 is no effect, 100 is complete control) [16]: 30; Plant response rating, Rice (0 to 100 scale, 0 is no effect, 100 is complete control) (rice (Oryza sativa)): 20; Plant response rating, Sedge, Umbrella (0 to 100 scale, 0 is no effect, 100 is complete control) [17]: 15; Plant response rating, Barnyardgrass (0 to 100 scale, 0 is no effect, 100 is complete control) [18]: 0 |
| CON=C(c1cccc(C#N)c1)c1c(O)c(C)nn(C)c1=O [Compound 57] | 10 | 0 | 20 | 10 | 30 | 30 | 0 | 0 | 0 | 20 | 50 | 0 | 50 | 10 | 0 | 0 | 0 | 0 | 10 | 0 | Ragweed plant response rating [10]: 0; Ragweed plant response rating (0 to 100 scale) [10]: 0; Ryegrass, Italian plant response rating [11]: 0; Ryegrass, Italian plant response rating (0 to 100 scale) [11]: 0; Pigweed plant response rating [12]: 0; Pigweed plant response rating (0 to 100 scale) [12]: 0; Kochia plant response rating (kochia (Kochia scoparia) [13]): 0; Kochia plant response rating (0 to 100 scale) (kochia (Kochia scoparia) [13]): 10; Barnyardgrass plant response rating [14]: 0; Barnyardgrass plant response rating (0 to 100 scale) [14]: 0; Foxtail, Giant plant response rating [15]: 0; Foxtail, Giant plant response rating (0 to 100 scale) [15]: 30; Plant response rating, Ducksalad (0 to 100 scale, 0 is no effect, 100 is complete control) [16]: 0; Plant response rating, Rice (0 to 100 scale, 0 is no effect, 100 is complete control) (rice (Oryza sativa)): 15; Plant response rating, Sedge, Umbrella (0 to 100 scale, 0 is no effect, 100 is complete control) [17]: 0; Plant response rating, Barnyardgrass (0 to 100 scale, 0 is no effect, 100 is complete control) [18]: 15 |
| CON=C(c1c(O)c(C)nn(C)c1=O)c1cccc2sccc12 [Compound 58] | 100 | 50 | 90 | 80 | 90 | 70 | 90 | 80 | 0 | 0 | 70 | 60 | 90 | 80 | 50 | 20 | 80 | 40 | 80 | 40 | Ragweed plant response rating [10]: 60; Ragweed plant response rating (0 to 100 scale) [10]: 80; Ryegrass, Italian plant response rating [11]: 70; Ryegrass, Italian plant response rating (0 to 100 scale) [11]: 100; Pigweed plant response rating [12]: 10; Pigweed plant response rating (0 to 100 scale) [12]: 50; Kochia plant response rating (kochia (Kochia scoparia) [13]): 30; Kochia plant response rating (0 to 100 scale) (kochia (Kochia scoparia) [13]): 60; Barnyardgrass plant response rating [14]: 10; Barnyardgrass plant response rating (0 to 100 scale) [14]: 60; Foxtail, Giant plant response rating [15]: 60; Foxtail, Giant plant response rating (0 to 100 scale) [15]: 100; Plant response rating, Ducksalad (0 to 100 scale, 0 is no effect, 100 is complete control) [16]: 0; Plant response rating, Rice (0 to 100 scale, 0 is no effect, 100 is complete control) (rice (Oryza sativa)): 0; Plant response rating, Sedge, Umbrella (0 to 100 scale, 0 is no effect, 100 is complete control) [17]: 0; Plant response rating, Barnyardgrass (0 to 100 scale, 0 is no effect, 100 is complete control) [18]: 0 |
